US20160115540A1, “PRODRUGS AND DRUGS” (Biogen MA Inc., priority 2013, published 2016)
Where a name gives a salt, the structure may show the parent alone.

Tested on: kidney
Assay: Transcriptional profiling on Affymetrix GeneChips, single dose, naïve mice: kidney
Type: in vivo, C57BL/6 mice
Settings: 100 DMF-vs-Veh, 2 h
Method: Treated mice were sacrificed at 2, 7, or 12 hours. Tissues (liver, spleen, kidney, jejunum, cortex, hippocampus, striatum and whole blood) were collected and analyzed by transcriptional profiling on mouse Affymetrix GeneChips.
Tissues (liver, spleen, kidney, jejunum, cortex, hippocampus, striatum and whole blood) were collected and analyzed by transcriptional profiling on mouse Affymetrix GeneChips.
Animals were exposed to CO2 and whole blood collected via cardiac puncture. Two 100 μl aliquots of whole blood were collected in 1.5 mL microcentrifuge tubes and snap frozen in liquid nitrogen. Peripheral (liver, spleen, kidney and jejunum) and CNS brain (cerebellum, hippocampus, striatum and cortex) tissues were harvested and snap frozen in liquid nitrogen, with special care taken to collect tissues of similar size and from the same location. All samples were stored at −80° C. until RNA extraction was conducted.
For RNA preparation, frozen tissues were placed in 2 mL RNAse-free 96-well blocks with 1.5 mL QIAzol Lysis Reagent (QIAgen) and a 3.2 mm stainless steel bead (BioSpec Products, Bartlesville, Okla.). Tissues were disrupted for four cycles of 45 seconds in a Mini-Beadbeater (Biospec Products). RNA was extracted in chloroform and the aqueous phase was mixed with an equal volume of 70% ethanol. Extracted RNA was applied to RNeasy 96 plates and purified by the spin method according to the manufacturer's protocol (RNeasy 96 Universal Tissue Protocol, QIAgen, Hilden Germany).
Automated sample amplifications and biotin labelings were carried out using the NuGEN Ovation RNA Amplification system V2 (Cat #3100), Ovation WB reagent (Cat #1300) and Encore Biotin module (Cat #4200) (NuGEN Technologies, Inc, San Carlos, Calif.) according to manufacturer's recommendations using an Arrayplex automated liquid handler (Beckman Coulter, Indianapolis, Ind.). Two micrograms of biotin labeled sscDNA probe were hybridized to Affymetrix GeneChip Affymetrix HT_MG-430_PM plate arrays with modified conditions as described in Allaire et al. Washing and staining of the hybridized arrays were completed as described in the GeneChip Expression analysis technical manual for HT plate arrays using the Genechip® Array Station (Affymetrix, Santa Clara, Calif.) with modifications as described in Allaire et al. The processed GeneChip® plate arrays were scanned using GeneTitan scanner (Affymetrix, Santa Clara, Calif.).
Affymetrix scans were subject to quality control (QC) measures. These tests included a visual inspection of the distribution of raw signal intensities and an assessment of RNA degradation, relative log expression (RLE), and normalized unsealed standard error (NUSE). All sample scans that passed these QC metrics were included in the analysis.
All CEL files were subjected to GC-content-based Robust Multi-array Average (GCRMA) normalization (version 2.20.0) (Irizarry R A, et al. Nucleic Acids Res 2003; 31:e15; Li C, et al. Genome Biol 2001; 2:[…]0032). Expression levels were log (base 2) transformed.
All calculations and analyses were carried out using R (version 2.11.1) and Bioconductor computational tools (Gentleman R. Springer Science+Business Media 2005).

SMILES: COC(=O)/C=C/C(=O)OC [DMF, dimethyl fumarate]
- FC Kbtbd11 1431254_PM_at: −1.77
- FC Kbtbd11 1435465_PM_at: −1.50
- FC Kdm6b 1440346_PM_at: 1.52
- FC LOC100502834 1441010_PM_at: −1.53
- FC LOC100503447 1443908_PM_at: −1.72
- FC Lipg 1421262_PM_at: 2.42
- FC Lipg 1450188_PM_s_at: 1.94
- FC Lonrf3 1429863_PM_at: 4.13
- FC Lonrf3 1436200_PM_at: 3.86
- FC Maff 1418936_PM_at: 2.83
- FC Mdm2 1423605_PM_a_at: 1.51
- FC Mdm2 1427718_PM_a_at: 1.66
- FC Med13 1438725_PM_at: 2.02
- FC Mfsd2a 1428223_PM_at: −2.59
- FC Mir17hg 1428694_PM_at: 2.82
- FC Mpp6 1441546_PM_at: 1.62
- FC Mt1 1451612_PM_at: 2.79
- FC Mtch2 1438842_PM_at: 1.67
- FC Mthfd2 1419253_PM_at: 2.06
- FC Mthfd2 1419254_PM_at: 1.54
- FC Mylip 1424988_PM_at: −1.70
- FC Naa16 1429056_PM_at: 1.71
- FC Napsa 1430744_PM_at: −4.53
- FC Nat2 1449981_PM_a_at: −2.01
- FC Nlrp6 1427369_PM_at: −1.52
- FC Ntn4 1450512_PM_at: −1.67
- FC Nufip2 1435632_PM_at: 1.57
- FC Osgin1 (1424022_PM_at): 4.63
- FC Ovol1 1419051_PM_at: −1.60
- FC P4ha1 1452094_PM_at: 1.56
- FC Paip1 1441955_PM_s_at: 1.61
- FC Pank1 1429813_PM_at: −1.59
- FC Pgd 1423706_PM_a_at: 1.61
- FC Pgd 1438627_PM_x_at: 1.50
- FC Pgd (1436771_PM_x_at): 1.52
- FC Pgd (1437380_PM_x_at): 1.53
- FC Phf23 1428997_PM_at: 1.72
- FC Phip 1438535_PM_at: 1.50
- FC Plekhf2 1423862_PM_at: 1.54
- FC Plk3 1434496_PM_at: 3.14
- FC Polr3e 1429456_PM_a_at: −1.69
- FC Ppm1k 1441988_PM_at: −1.62
- FC Ppp1r15b 1436366_PM_at: 1.72
- FC Pppde1 1425185_PM_at: 1.94
- FC Pppde1 1451621_PM_at: 1.65
- FC Pprc1 1426381_PM_at: 1.74
- FC Prkar2b 1438664_PM_at: 2.43
- FC Prr5 1451463_PM_at: 1.65
- FC Psme4 1443116_PM_at: 1.56
- FC Rg9mtd2 1435035_PM_at: 1.82
- FC Rhebl1 1447818_PM_x_at: −1.57
- FC Rhebl1 1451516_PM_at: −2.01
- FC Riok2 1423481_PM_at: 1.62
- FC Rwdd2a 1428963_PM_at: 2.54
- FC Siah2 1448170_PM_at: 1.71
- FC Slc1a4 1423549_PM_at: 1.52
- FC Slc7a13 1431740_PM_at: −2.60
- FC Slc20a1 1448568_PM_a_at: 2.07
- FC Slc36a2 1436521_PM_at: 4.63
- FC Slc38a2 1426722_PM_at: 2.05
- FC Slc40a1 1448566_PM_at: 1.71
- FC Snhg1 1433674_PM_a_at: 1.62
- FC Snhg1 1433675_PM_at: 1.69
- FC Snx16 1438803_PM_s_at: 1.60
- FC Spry4 1440867_PM_at: 1.71
- FC Spry4 1445669_PM_at: 1.54
- FC Sqstm1 1450957_PM_a_at: 1.69
- FC Srsf7 1436871_PM_at: 1.57
- FC Srxn1 (1419942_PM_at): 1.62
- FC Srxn1 (1426875_PM_s_at): 1.59
- FC Susd3 1428975_PM_at: −1.51
- FC Syn3 1435311_PM_s_at: −1.73
- FC Taf15 1438130_PM_at: 1.59
- FC Them4 1431140_PM_at: 1.80
- FC Tmco6 1451692_PM_at: −1.57
- FC Tmem26 1435409_PM_at: −1.85
- FC Tmem26 (1434583_PM_at): −1.66
